According to patent US6593306B1, “Methods for modulation and inhibition of telomerase” (Board of Regents, The University of Texas Systems, priority 1995, dated 2003):
Values belong to the compound of their own block, whether it stands above or below them. [7dzG] = 7-deaza-2'-deoxyguanosine (G*)

How the values were obtained:
UA-21 telomerase = molecular target: T1, UA-21 telomerase (Cricetulus griseus, UniProt A0A9J7FFE8); assay: Telomerase assay with CHO non-processive telomerase; assay type: biochemical, Chinese hamster
T1 construct: non-processive telomerase activity in the S100 extracts of HeLa-S3, UA-21 and WI38 cell lines; endogenous in cells; host or cells: UA-21 cells (CHO subline), S100 extract
T1 sequence (A0A9J7FFE8 1-1129): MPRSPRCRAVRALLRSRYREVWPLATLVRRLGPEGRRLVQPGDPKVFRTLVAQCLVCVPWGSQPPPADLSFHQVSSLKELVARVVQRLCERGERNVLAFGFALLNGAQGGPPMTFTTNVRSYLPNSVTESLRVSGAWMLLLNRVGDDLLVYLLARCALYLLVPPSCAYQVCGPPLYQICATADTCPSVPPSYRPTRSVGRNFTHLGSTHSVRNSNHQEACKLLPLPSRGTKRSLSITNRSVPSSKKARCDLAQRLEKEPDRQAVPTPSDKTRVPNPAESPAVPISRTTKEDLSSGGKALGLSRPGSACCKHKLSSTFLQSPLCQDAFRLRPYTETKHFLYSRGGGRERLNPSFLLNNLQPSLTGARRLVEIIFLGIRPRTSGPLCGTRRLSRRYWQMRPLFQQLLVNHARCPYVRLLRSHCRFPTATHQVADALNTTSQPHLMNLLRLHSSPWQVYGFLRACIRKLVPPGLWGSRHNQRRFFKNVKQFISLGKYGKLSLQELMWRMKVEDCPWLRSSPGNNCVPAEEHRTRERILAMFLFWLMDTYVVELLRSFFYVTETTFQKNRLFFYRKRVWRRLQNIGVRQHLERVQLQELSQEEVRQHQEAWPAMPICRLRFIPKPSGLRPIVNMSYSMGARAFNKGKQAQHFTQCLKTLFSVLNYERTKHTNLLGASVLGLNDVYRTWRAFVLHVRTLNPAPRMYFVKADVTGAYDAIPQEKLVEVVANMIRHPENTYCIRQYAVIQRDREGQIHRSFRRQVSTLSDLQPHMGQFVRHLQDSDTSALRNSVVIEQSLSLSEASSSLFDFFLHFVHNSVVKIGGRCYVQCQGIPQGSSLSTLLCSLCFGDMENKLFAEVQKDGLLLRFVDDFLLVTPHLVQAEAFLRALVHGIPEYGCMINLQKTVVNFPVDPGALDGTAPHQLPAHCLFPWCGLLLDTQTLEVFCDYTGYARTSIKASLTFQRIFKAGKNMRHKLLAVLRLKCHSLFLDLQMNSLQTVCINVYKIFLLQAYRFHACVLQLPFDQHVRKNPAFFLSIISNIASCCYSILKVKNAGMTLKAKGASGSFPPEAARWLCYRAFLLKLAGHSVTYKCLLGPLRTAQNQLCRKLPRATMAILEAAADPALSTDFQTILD
Procedure: Selected nucleoside triphosphates were tested in one or both of the “conventional” or “modified” telomerase assays described in Methods using the human processive and the CHO non-processive telomerases. Initially, three chain-terminators were selected: 2′,3′-dideoxythymidine triphosphate (ddTTP), 3′-fluoro-2′,3′-dideoxythymidine triphosphate (F-ddTTP), and 3′-azido-2′-, 3′-dideoxythymidine triphosphate (AZ-ddTTP) as prototype agents to investigate whether they could inhibit telomerase activity. The three compounds are dTTP analogs without a 3′-OH group for subsequent chain elongation. They may either incorporate into the telomere sequence and terminate further chain elongation or compete directly with dTTP for the substrate binding site in the telomerase reaction. In either case, telomerase activity is inhibited.
The DNA ladder bands were quantitated using a Molecular Dynamic Personal Densitometer. The concentration of AZ-ddTTP required to inhibit the telomerase activity by 50% of the control is estimated to be 500 and 750 μM against the 293 and UA-21 telomerase, respectively. In contrast, the nucleoside AZT (3′-azidothymidine), at 2 mM, has a small effect on the telomerase activity.

human telomerase = molecular target: T2, human telomerase (Homo sapiens, UniProt O14746); assay: Cell-free telomerase inhibition, conventional or modified assay not stated; assay type: biochemical
T2 construct: telomerase in S100 extracts of transformed human fetal kidney tumor 293 cells (a processive telomerase); endogenous in cells; host or cells: human cells, (S100 extract)
T2 sequence (O14746 whole entry): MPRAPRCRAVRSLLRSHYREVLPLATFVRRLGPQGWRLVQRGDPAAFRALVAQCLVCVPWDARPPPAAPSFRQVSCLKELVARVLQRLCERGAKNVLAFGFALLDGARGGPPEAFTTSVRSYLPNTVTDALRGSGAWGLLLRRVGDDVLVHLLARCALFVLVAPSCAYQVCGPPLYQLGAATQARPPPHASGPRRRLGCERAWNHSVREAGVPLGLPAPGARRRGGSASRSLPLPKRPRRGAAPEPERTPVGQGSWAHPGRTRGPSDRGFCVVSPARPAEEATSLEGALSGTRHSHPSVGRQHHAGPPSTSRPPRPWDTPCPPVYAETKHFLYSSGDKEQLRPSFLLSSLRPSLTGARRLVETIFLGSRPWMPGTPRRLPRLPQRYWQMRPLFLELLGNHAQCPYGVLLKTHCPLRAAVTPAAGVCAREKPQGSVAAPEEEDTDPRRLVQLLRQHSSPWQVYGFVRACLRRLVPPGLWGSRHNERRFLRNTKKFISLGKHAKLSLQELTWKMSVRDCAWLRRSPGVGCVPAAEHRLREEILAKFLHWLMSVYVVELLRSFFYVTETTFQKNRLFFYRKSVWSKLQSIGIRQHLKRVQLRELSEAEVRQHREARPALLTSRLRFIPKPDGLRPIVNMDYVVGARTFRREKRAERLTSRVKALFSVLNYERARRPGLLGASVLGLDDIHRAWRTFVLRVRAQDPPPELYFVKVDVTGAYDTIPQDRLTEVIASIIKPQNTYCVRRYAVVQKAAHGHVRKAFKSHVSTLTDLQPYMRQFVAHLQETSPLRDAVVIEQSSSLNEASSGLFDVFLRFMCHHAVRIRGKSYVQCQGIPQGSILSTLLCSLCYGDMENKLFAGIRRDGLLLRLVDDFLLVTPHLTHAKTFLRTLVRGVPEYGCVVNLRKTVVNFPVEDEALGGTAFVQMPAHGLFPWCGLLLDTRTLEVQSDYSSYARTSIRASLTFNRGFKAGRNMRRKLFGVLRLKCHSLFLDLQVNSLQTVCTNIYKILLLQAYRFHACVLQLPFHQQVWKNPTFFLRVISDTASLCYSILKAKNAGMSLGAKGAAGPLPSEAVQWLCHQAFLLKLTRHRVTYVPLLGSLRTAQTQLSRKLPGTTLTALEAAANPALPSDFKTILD
T2 sequence (O60832 whole entry partner): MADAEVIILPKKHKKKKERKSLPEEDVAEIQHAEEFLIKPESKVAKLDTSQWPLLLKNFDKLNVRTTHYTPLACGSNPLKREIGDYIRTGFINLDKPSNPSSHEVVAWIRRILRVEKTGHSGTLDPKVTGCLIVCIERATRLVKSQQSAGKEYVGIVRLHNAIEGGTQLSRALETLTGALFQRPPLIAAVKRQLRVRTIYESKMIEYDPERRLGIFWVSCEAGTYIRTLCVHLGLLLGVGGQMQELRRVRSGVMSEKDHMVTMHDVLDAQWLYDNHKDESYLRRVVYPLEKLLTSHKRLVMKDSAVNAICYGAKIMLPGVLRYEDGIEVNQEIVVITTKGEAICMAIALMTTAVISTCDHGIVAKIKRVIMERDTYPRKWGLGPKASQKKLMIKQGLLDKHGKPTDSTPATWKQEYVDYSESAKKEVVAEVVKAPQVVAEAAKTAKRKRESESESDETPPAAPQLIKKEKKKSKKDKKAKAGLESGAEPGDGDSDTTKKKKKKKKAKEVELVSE
T2 sequence (Q9NPE3 whole entry partner): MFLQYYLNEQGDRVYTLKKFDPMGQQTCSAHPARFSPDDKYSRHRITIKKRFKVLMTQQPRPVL
T2 sequence (Q9NX24 whole entry partner): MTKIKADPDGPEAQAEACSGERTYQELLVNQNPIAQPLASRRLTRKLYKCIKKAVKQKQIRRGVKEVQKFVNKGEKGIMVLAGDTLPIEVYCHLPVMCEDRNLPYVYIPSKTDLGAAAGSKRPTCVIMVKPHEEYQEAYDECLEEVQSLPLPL
T2 sequence (Q9NY12 whole entry partner): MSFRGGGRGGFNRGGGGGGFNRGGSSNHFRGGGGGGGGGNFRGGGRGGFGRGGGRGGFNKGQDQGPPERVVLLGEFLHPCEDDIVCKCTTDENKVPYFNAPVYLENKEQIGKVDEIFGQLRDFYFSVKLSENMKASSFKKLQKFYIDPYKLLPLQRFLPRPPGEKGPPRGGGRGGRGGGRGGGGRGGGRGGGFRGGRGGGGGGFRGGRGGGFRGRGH

[1] = molecular target: T3, human 293 cell telomerase (Homo sapiens, UniProt O14746); assay: Conventional telomerase assay (32P-dGTP as radiolabel substrate); assay type: biochemical; conditions: 293 cells telomerase; competing dTTP 1-2 mM; inhibitor 0 to 2 mM
T3 construct: with 20 μl of S100 enzyme extract; endogenous in cells; host or cells: 293 cells (transformed human embryonic kidney), S100 extract
T3 sequence (O14746 whole entry): as the sequence (O14746 whole entry) above
T3 sequence (O60832 whole entry partner): as the sequence (O60832 whole entry partner) above
T3 sequence (Q9NPE3 whole entry partner): as the sequence (Q9NPE3 whole entry partner) above
T3 sequence (Q9NX24 whole entry partner): as the sequence (Q9NX24 whole entry partner) above
T3 sequence (Q9NY12 whole entry partner): as the sequence (Q9NY12 whole entry partner) above

[2] = test system: G-quartet structure of human telomeric DNA sequence; assay: G-quartet formation by imino proton NMR; assay type: physicochemical; conditions: KCl-containing buffer; imino proton resonances 10-12 ppm
Procedure: The oligodeoxyribonucleotide having the sequence d(GGTTAGGGTTAG), corresponding to the human telomeric DNA sequence, was prepared using standard automated solid phase synthesis techniques employing a ten micromole synthesis on an Applied Biosystems Model 381A automated DNA synthesizer. Solid support and reagents were purchased from Biogenex, Glen Research, or Applied Biosystems, South San Francisco, Calif. The DNA sample was deprotected in concentrated NH4OH at 55° C. overnight, purified by reverse phase HPLC on a C18 column (Dynamax-300A) and then dialyzed extensively against deionized water. NMR samples were prepared by reconstituting lyophilized DNA in 90% H2O/10% D2O containing 1 mM EDTA/50 mM potassium phosphate and either 100 mM KCl or 100 mM NaCl. NMR experiments were carried out on a Bruker AMX 500 MHz spectrophotometer using a 1-1 echo pulse sequence with maximum excitation centered as 12.0 ppm.
After cleavage from the solid support, deprotection and purification, the oligodeoxyribonucleotide is dissolved in 90% H2O/10% D2O containing 100 mM KCl/1 mM EDTA/50 mM potassium phosphate. The imino NMR spectrum of this oligodeoxyribonucleotide is acquired at various temperatures from about 0° C.-80° C. and the presence of the diagnostic G-quartet imino is indicated by the presence of resonances at 10-12 ppm.

inhibition of the non-processive CHO telomerase (UA-21 telomerase; concentration not given): completely
effect against the processive human telomerase (human telomerase; concentration not given): little effect
Compound: Cc1cn([C@H]2C[C@H](F)[C@@H](COP(=O)(O)OP(=O)(O)OP(=O)(O)O)O2)c(=O)[nH]c1=O [NA002, 3′-Fluoro-3′-Deoxythymidine-5′-Triphosphate]

IC50 [1]: ~200 µM
IC50 (UA-21 telomerase; UA-21 telomerase, estimated from densitometry, read-out: concentration required to inhibit the telomerase activity by 50% of the control): ~750 µM
IC50 (human telomerase; 293 telomerase, estimated from densitometry, read-out: concentration required to inhibit the telomerase activity by 50% of the control): ~500 µM
Compound: Cc1cn([C@H]2C[C@H](N=[N+]=[N-])[C@@H](CO[P@](=O)(O)O[P@](=O)(O)OP(=O)(O)O)O2)c(=O)[nH]c1=O [NA010, 3′-Azido-3′-Deoxythymidine-5′-Triphosphate]

Compound: d(GGTTAGG*GTTAG): oligodeoxyribonucleotide where G* represents the 7-deaza-2′-deoxyguanosine residue (DNA GGTTAGGGTTAG; DNA, [7dzG] at 7, backbone not given here)
temperature up to which G-quartet structure forms [2]: ≤ 20 °C

Compound: d(GGTTAGGGTTAG): oligodeoxyribonucleotide corresponding to the human telomeric DNA sequence (DNA, backbone not given here) [reference compound]
temperature up to which G-quartet structure forms [2]: ≥ 70 °C
